Reference: ChEMBL document CHEMBL1201862, “PubChem BioAssay data set” (2004)
Calls of active or inactive are those of the source.

Assays:
[1] = target: T1, Rac GTPase-activating protein 1 (Homo sapiens, UniProt Q9H0H5); assay: MgcRacGAP GTPase-activating activity inhibitors, confirmation, biochemical, ADP Hunter fluorescence, primary and confirmatory (AID 624330); type: functional
T1 sequence (Q9H0H5 whole entry): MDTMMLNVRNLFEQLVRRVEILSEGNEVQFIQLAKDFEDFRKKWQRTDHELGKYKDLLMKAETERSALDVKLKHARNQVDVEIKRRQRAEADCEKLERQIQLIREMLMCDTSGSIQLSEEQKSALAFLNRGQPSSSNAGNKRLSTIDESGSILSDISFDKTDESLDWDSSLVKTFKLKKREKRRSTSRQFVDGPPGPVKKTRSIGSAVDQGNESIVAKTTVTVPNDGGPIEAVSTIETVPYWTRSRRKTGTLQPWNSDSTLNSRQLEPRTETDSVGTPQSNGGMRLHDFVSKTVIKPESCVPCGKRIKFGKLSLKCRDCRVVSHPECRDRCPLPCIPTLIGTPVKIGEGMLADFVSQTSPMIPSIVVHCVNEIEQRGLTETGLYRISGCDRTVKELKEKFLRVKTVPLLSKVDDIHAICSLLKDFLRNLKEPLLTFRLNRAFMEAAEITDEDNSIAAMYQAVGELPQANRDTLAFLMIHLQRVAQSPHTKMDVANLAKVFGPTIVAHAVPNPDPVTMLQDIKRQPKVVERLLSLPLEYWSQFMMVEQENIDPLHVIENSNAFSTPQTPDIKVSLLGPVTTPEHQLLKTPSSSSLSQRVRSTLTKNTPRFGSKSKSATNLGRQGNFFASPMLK

Cytochrome P450 1A2 = target: T2, Cytochrome P450 1A2 (Homo sapiens, UniProt P05177);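 note: PubChem cytochrome P450 panel assay, CYP1A2 panel member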
T2 sequence (P05177 whole entry): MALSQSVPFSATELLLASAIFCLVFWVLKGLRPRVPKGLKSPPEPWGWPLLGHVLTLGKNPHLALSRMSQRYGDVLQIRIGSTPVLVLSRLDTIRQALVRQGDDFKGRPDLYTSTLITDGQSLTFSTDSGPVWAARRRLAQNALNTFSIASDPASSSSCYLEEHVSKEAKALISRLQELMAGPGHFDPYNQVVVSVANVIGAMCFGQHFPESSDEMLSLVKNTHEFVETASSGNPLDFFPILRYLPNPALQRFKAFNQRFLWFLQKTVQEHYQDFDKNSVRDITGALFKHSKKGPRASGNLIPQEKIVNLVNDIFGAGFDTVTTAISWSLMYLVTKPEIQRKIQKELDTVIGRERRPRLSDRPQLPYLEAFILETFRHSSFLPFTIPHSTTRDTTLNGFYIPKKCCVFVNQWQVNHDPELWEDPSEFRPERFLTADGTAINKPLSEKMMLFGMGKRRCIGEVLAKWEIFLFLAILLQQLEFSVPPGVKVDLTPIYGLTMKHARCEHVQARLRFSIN

Cytochrome P450 2D6 = Cytochrome P450 2D6 (Homo sapiens, UniProt P10635);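 note: CYP2D6 member of a cytochrome P450 panel assay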
[2] = target: T3, Heat shock factor protein 1 (Mus musculus, UniProt P38532); assay: inhibition of MG132-induced HSE-luciferase signal, confirmation, cell-based, NIH3T3, luminescence, dose retest (AID 2382); type: functional;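 note: NIH3T3 fibroblasts with HSF1-driven luciferase reporter stressed by proteasome inhibitor MG132; luminescence from HSF1-driven luciferase expression after 8 hours of MG132 stress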
T3 sequence (P38532 whole entry): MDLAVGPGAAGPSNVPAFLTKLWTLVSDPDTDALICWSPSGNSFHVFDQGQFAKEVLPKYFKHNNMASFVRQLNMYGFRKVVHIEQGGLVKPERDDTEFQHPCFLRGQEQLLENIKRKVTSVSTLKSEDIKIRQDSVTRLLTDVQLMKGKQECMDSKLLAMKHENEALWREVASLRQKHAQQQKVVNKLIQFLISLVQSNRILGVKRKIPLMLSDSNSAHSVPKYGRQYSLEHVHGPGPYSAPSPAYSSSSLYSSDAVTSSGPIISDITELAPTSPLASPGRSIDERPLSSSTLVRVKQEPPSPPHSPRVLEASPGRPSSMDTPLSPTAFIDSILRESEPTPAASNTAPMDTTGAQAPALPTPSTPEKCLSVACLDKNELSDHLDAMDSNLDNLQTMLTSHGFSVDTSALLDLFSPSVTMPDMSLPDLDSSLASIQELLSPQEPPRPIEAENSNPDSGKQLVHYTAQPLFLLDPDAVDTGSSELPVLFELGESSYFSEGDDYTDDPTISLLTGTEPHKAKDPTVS

Protein RecA = target: T4, Protein RecA (Mycobacterium tuberculosis, UniProt P9WHJ3); assay: Fluorescence Cell-Free Homogeneous Dose Retest to Identify Inhibitors of RecA-Intein Splicing Activity. [Related pubchem assays (depositor defined):AID2097, AID2223, AID489010, AID492950]; type: functional
T4 sequence (P9WHJ3 whole entry): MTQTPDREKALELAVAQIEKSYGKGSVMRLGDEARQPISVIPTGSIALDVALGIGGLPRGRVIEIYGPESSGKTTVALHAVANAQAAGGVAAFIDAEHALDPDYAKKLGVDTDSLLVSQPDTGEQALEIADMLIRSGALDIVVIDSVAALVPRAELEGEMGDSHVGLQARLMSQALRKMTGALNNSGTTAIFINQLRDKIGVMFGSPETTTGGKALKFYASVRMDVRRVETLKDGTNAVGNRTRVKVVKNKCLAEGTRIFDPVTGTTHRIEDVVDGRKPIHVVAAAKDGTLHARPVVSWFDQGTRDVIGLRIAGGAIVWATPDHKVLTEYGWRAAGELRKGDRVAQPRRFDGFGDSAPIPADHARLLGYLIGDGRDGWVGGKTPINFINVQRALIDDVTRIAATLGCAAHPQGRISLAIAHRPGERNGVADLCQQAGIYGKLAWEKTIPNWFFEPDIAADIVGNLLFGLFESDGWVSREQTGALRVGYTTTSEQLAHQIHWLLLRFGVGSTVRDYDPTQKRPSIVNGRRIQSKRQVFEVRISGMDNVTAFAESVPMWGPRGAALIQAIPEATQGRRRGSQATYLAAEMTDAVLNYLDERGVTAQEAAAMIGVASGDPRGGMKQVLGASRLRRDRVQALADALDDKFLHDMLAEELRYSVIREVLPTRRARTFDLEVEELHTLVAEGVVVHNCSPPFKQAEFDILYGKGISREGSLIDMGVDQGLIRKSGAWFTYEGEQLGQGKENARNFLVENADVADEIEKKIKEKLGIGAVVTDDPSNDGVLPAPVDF

Streptococcus = assay: Group A Streptococcus viability loss, dose response, counter-screen for streptokinase expression inhibitor project, luminescence, BacTiterGlo (AID 1915); type: functional, organism-based;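 note: potency for reduction of bacterial viability or growth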
Streptokinase A = target: T5, Streptokinase A (Streptococcus pyogenes serotype M1, UniProt P10520); assay: S. pyogenes streptokinase expression inhibitors, potency, dose response, plasminogen activation absorbance, OD405 (AID 1914); type: functional, Streptococcus pyogenes M1 GAS;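 note: secreted streptokinase activity via plasminogen activation per viability signal from cell pellet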
T5 sequence (P10520 whole entry): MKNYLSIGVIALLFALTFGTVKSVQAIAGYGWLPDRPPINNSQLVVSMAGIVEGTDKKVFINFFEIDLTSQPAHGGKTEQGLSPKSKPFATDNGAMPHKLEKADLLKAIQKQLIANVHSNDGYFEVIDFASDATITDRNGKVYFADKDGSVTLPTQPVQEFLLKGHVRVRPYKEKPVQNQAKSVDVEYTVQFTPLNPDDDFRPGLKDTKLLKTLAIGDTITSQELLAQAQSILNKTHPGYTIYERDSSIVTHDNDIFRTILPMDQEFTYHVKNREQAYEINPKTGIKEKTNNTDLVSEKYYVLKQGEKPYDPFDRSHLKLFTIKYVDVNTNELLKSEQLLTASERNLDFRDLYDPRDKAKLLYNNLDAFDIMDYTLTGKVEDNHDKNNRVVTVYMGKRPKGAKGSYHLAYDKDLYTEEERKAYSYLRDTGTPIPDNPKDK

[3] = tested on: Streptococcus sp. 'group A'; assay: growth inhibition of control SK(-) GAS strain, dose response, counter-screen for streptokinase expression inhibitor project, luminescence, kanamycin, BacTiterGlo, confirmation (AID 1900); type: functional, organism-based
[4] = target: T6, Replicative DNA helicase DnaB (Mycobacterium tuberculosis, UniProt P9WMR3); assay: DnaB intein splicing inhibitors, dose response, biochemical, cell-free fluorescence (AID 449749); type: functional
T6 sequence (P9WMR3 whole entry): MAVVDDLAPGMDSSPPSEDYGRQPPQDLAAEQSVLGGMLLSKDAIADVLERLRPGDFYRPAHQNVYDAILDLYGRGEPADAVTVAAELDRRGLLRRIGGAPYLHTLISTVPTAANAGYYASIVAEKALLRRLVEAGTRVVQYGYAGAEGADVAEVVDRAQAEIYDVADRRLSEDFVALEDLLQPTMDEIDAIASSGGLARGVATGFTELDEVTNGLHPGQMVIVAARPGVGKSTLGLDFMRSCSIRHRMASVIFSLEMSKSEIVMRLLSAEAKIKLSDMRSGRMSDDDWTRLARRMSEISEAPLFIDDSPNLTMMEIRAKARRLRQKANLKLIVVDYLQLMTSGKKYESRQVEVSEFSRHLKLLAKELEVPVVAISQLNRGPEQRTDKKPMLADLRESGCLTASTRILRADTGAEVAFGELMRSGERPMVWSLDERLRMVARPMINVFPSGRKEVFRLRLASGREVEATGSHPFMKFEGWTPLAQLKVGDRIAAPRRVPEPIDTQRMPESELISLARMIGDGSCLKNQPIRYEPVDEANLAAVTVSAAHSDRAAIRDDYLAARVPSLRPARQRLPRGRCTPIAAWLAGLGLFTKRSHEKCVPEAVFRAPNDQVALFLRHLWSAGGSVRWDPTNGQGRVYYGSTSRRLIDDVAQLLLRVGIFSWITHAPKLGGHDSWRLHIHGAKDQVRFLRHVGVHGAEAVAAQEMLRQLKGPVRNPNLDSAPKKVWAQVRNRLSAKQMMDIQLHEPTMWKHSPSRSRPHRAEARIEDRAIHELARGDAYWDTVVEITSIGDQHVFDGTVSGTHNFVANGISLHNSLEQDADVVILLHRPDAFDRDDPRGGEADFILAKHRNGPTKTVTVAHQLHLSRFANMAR

cells = type: functional

Chain of Cytochrome P450 2D6 (P10635 whole entry): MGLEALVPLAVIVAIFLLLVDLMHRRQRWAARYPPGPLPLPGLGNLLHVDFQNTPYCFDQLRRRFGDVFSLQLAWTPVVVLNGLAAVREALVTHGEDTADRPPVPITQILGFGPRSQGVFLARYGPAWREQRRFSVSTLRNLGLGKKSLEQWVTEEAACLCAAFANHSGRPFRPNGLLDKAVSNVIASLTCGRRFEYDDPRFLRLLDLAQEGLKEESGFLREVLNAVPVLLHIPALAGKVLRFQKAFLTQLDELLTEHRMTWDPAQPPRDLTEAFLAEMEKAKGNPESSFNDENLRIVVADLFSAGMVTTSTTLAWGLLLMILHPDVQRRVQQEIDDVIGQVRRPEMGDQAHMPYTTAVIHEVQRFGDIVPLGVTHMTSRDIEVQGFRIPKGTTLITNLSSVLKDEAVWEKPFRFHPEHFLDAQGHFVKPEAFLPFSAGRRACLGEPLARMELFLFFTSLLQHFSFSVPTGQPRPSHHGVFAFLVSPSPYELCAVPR

Structure (SMILES): CCN1CCN(CC(O)COC(c2ccccc2)c2ccccc2C)CC1 (stereo not drawn)
- IC50 [1]: 64.1 µM (active)

Structure (SMILES): COc1cc(C)cc2c(-c3c(O)cc(O)c4c3C[C@H](C)N[C@@H]4C)cc(-c3cc(-c4c(O)cc(O)c5c4C[C@H](C)N[C@@H]5C)c4cc(C)cc(OC)c4c3O)c(O)c12
- AC50 (Cytochrome P450 1A2): 0.2 µM (inconclusive)
- AC50 (Cytochrome P450 2D6): 5.01 µM (inconclusive)

Structure (SMILES): Cc1ccc(C(=O)N/C(=C/c2ccco2)C(=O)Nc2cccc(C(=O)O)c2)cc1
- EC50 [2]: > 195 µM (not active)

Structure (SMILES): CCOC(=O)c1cc(NCc2cccs2)ccc1N1CCOCC1
- IC50 [1]: 93 µM (active)

Structure (SMILES): CCCCCCCC/C=C\CCCCCCCC(=O)NCc1ccc(O)c(OC)c1 [OLVANIL]
- AC50 (Cytochrome P450 1A2): 20 µM (inconclusive)

Structure (SMILES): O=S(=O)(N[C@H]1C[C@@H](NS(=O)(=O)OCC(Cl)(Cl)Cl)C2CCCCC21)OCC(Cl)(Cl)Cl (stereo partly drawn)
- EC50 (Protein RecA): 50.9 µM (active)
- EC50 (Streptococcus): 5.38 µM (active)
- EC50 (Streptokinase A): 1.7 µM (active)
- EC50 [3]: 2.45 µM (active)
- AC50 [4]: 3.31 µM (active)

Structure (SMILES): CCCc1cc(=O)oc2cc(C)cc(OCC(=O)NCCCn3ccnc3)c12
- EC50 [2]: > 195 µM (not active)

Structure (SMILES): CCOc1cc(/C=N/NC(=O)c2ccc(NC(=O)C3CC3)cc2)ccc1O
- IC50 [1]: 72.4 µM (active)

Structure (SMILES): C/C(=N/NC(=O)c1ccncc1)C1=C(O)CC(C)(C)CC1=O
- IC50 (cells): 5.71 µM (active)

Structure (SMILES): CN/C(=N\c1ccc(C2=NNC(=O)C[C@@H]2C)cc1)NC#N
- AC50 (Cytochrome P450 1A2): 39.8 µM (inconclusive)

Structure (SMILES): COc1ccc(OC)c(CN2CCN(Cc3ccc(OC)c(OC)c3OC)CC2)c1
- IC50 [1]: 77.7 µM (active)

Structure (SMILES): CC(C)Oc1ccc(/C=C(/NC(=O)c2ccccc2)C(=O)NCCC(=O)O)cc1
- EC50 [2]: > 195 µM (not active)

Structure (SMILES): O=C(NCc1cccs1)c1ccccc1[N+](=O)[O-]
- EC50 [2]: > 195 µM (not active)

Structure (SMILES): CCNc1ncc2nc(-c3cn(C)c4ccccc34)c(=O)n(Cc3cccc(OC)c3)c2n1
- AC50 (Cytochrome P450 1A2): 12.6 µM (inconclusive)

Structure (SMILES): COc1cc(/C=N/NC(=O)CNC(=O)c2cccs2)ccc1O
- IC50 [1]: 42.2 µM (active)

Structure (SMILES): Oc1cc(C(F)(F)F)nc2c(C(F)(F)F)cccc12
- IC50 (cells): 50 µM (active)
- EC50 (Streptococcus): 8.27 µM (active)
- EC50 [3]: 2.62 µM (active)
